For assay [1], the system named is cone photoreceptor precursor and rod photoreceptor precursor in retinal tissue produced from human ES cells. As to the kind of experiment: Immunostaining for GFP (CRX::Venus), RXR-γ and NRL of retinal tissue, day 191-192, image analysis. Format: cell-based. The conditions noted are these: for proportion of rod photoreceptor precursor (Rod-like; NRL-positive) / proportion of cone photoreceptor precursor (Cone; RXR-γ-positive and NRL-negative): day 191-192, 100 nM LDN193189 or 100 nM SAG day 22 to day 100; for proportion of rod photoreceptor precursor (Rod-like; NRL-positive) / proportion of cone photoreceptor precursor (Cone; RXR-γ-positive and NRL-negative) / proportion of NRL-positive rod photoreceptor precursor among photoreceptor precursors versus Control group: 0.15 nM BMP4, 500 nM Cyclopamine-KAAD; for proportion of rod photoreceptor precursor (Rod-like; NRL-positive): Control (NUC) about 12.8%; for proportion of cone photoreceptor precursor (Cone; RXR-γ-positive and NRL-negative): Control (NUC) about 22.7%; for proportion of NRL-positive rod photoreceptor precursor among photoreceptor precursors versus Control group: 100 nM LDN193189, 100 nM SAG day 22 to day 100; for proportion of RXR-γ-positive cone photoreceptor precursor among photoreceptor precursors versus Control group: 500 nM Cyclopamine-KAAD or 100 nM SAG day 22 to day 100. Here is the method:
A cell aggregate containing a retinal tissue was prepared by the method described in “Kuwahara et al. Nat Commun 2015, 19(6), 6286-” after modification in part. That is, the aforementioned cultured ES cells were individually dispersed using TrypLE Express (Invitrogen), and the individually dispersed human ES cells were suspended in 100 μL of a serum-free medium in a cell non-adhesive 96 well plate (SUMILON spheroid plate, SUMITOMO BAKELITE CO., LTD.) at 9×10^3 cells per well to allow rapid formation of aggregates, after which they were cultured at 37° C., 5% CO2. As the serum-free medium therefor, a serum-free medium obtained by adding 10% KSR, 450 μM 1-monothioglycerol, 1× Chemically defined lipid concentrate, 5 mg/mL BSA, 20 μM Y27632 to a 1:1 mixture of F-12 medium and IMDM medium was used. At 6 days after the start of suspension culture, BMP4 at a final concentration of 1.5 nM was added and suspension culture was continued. A half amount of the culture medium in the well was exchanged with the above-mentioned medium not supplemented with a BMP signal transduction pathway agonist every 3 or 4 days. A cell aggregate containing a retinal tissue at day 18 from the start of suspension culture was cultured in suspension in a serum-free medium (DMEM/F12 medium supplemented with 1% N2 supplement) containing 3 μM CHIR99021 and 5 μM SU5402 for 4 days, namely, up to day 22 from the start of suspension culture. Thereafter, suspension culture of the cell aggregate containing the retinal tissue was continued until it was appropriately used for analysis and the like. As the culture medium during this period, serum-containing media shown in the following to [3] were used and the cell aggregate was cultured under 5% CO2 conditions.
[1] day 22 to day 38 from the start of suspension culture; DMEM/F12 medium supplemented with 10% fetal calf serum, 1% N2 supplement, and 100 μM taurine. day 38 to day 60 from the start of suspension culture; a 1:3 mixed medium of DMEM/F12 medium supplemented with 10% fetal calf serum, 1% N2 supplement, and 100 μM taurine, and Neurobasal medium supplemented with 10% fetal calf serum, 2% B27 supplement, and 100 μM taurine. after day 60 from the start of suspension culture; Neurobasal medium supplemented with 10% fetal calf serum, 2% B27 supplement, and 100 μM taurine.
[1] Control group (FIG. 3a, f, k, p); according to the method described in Example 1, cultured without addition up to day 191 from the start of suspension culture. [2]+BMP group (FIG. 3b, g, 1, q); 0.15 nM BMP4 was added from day 22 to day 100 from the start of suspension culture and cultured up to day 191 from the start of suspension culture. From day 100 to day 191 from the start of suspension culture, cultured in medium described in Example 1. [3]+Cyclopamine-KAAD group (FIG. 3c, h, m, r); 500 nM Cyclopamine-KAAD was added from day 22 to day 100 from the start of suspension culture, and cultured up to day 191 from the start of suspension culture. From day 100 to day 191 from the start of suspension culture, cultured in medium described in Example 1. [4]+LDN193189 group (FIG. 3d, i, n, s); 100 nM LDN193189 was added from day 22 to day 100 from the start of suspension culture, and cultured up to day 191 from the start of suspension culture. From day 100 to day 191 from the start of suspension culture, cultured in medium described in Example 1. [5]+SAG group (FIG. 3e, j, o, t); 100 nM SAG was added from day 22 to day 100 from the start of suspension culture, and cultured up to day 191 from the start of suspension culture. From day 100 to day 191 from the start of suspension culture, cultured in medium described in Example 1. […]

The next assay relates to ALDH1A3. As to the kind of experiment: Immunostaining for ALDH1A3 (ventral marker) of retinal tissue. Format: cell-based, human. To be noted: day 75, 0.15 nM BMP4, 100 nM LDN193189, 100 nM SAG from day 22. The method, then:
[1] Control group (FIG. 2a, f, k, p); according to the method described in Example 1, culture was performed up to day 70 or day 75 from the start of suspension culture and without addition. [2]+BMP group (FIG. 2b, g, 1, q); 0.15 nM BMP4 was added from day 22 from the start of suspension culture to completion of suspension culture, and cultured up to day 70 or day 75 from the start of suspension culture. [3]+Cyclopamine-KAAD group (FIG. 2c, h, m, r); 500 nM Cyclopamine-KAAD was added from day 22 from the start of suspension culture to completion of the suspension culture, and cultured up to day 70 or day 75 from the start of suspension culture. [4]+LDN193189 group (FIG. 2d, i, n, s); 100 nM LDN193189 was added from day 22 from the start of suspension culture to completion of the suspension culture, and cultured up to day 70 or day 75 from the start of suspension culture. [5]+SAG group (FIG. 2e, j, o, t); 100 nM SAG was added from day 22 from the start of suspension culture to completion of the suspension culture, and cultured up to day 70 or day 75 from the start of suspension culture.
The retinal tissues produced by the method described in Example 2 were fixed with 4% para-formaldehyde, cryosections were prepared, and immunostaining for GFP (fluorescence of GFP variant incorporated in CRX gene locus can be identified. That is, cells similar to CRX-positive cell can be identified), ALDH1A3, or DAPI staining for staining the nucleus was performed. The retinal tissue used was one on day 75 from the start of suspension culture similar to Example 2. As a result, an ALDH1A3-positive region considered to be a ventral region in the Control (NUC) group was found in the retinal tissue, and in such region, particularly GFP-positive cells, i.e., CRX::Venus-positive cells expressing CRX, were less. In +BMP4 group, overall expression of ALDH1A3 was suppressed as compared to the Control (NUC) group, and CRX::Venus-positive cells increased along therewith.

For the compound `CC1=C2C[C@H]3[C@@H](CC=C4CC(=O)CC[C@@]43C)[C@@H]2CC[C@]12O[C@@H]1C[C@H](C)CN(CCNC(=O)CCCCCNC(=O)CCc3ccccc3)[C@H]1[C@H]2C` [Cyclopamine-KAAD], in assay [1], the “proportion of rod photoreceptor precursor (Rod-like; NRL-positive)” value (from here on “proportion … (Rod-like; NRL-positive)”) was “about 11.5%”; the “proportion of cone photoreceptor precursor (Cone; RXR-γ-positive and NRL-negative)” value was “about 30.2%”. Further, in assay [1] (day 191), the “proportion of NRL-positive rod photoreceptor precursor among photoreceptor precursors versus Control group” value is on record as “decreased somewhat” and the “proportion of RXR-γ-positive cone photoreceptor precursor among photoreceptor precursors versus Control group” value is recorded as “can increase”. Moreover, the “CRX::Venus-positive photoreceptor precursor” value in assay [1] (day 191, 500 nM Cyclopamine-KAAD day 22 to day 100) is on record as “can be increased”.

As for `c1ccc2c(-c3cnn4cc(-c5ccc(N6CCNCC6)cc5)cnc34)ccnc2c1` [LDN193189, 4-[6-(4-piperazin-1-ylphenyl)pyrazolo[1,5-a]pyrimidin-3-yl]quinoline], in assay [1], the “proportion … (Rod-like; NRL-positive)” value was “about 14.0%”; the “proportion of cone photoreceptor precursor (Cone; RXR-γ-positive and NRL-negative)” value is listed as “about 20.0%”. For the same compound, in assay [1] (day 191), the “proportion of NRL-positive rod photoreceptor precursor among photoreceptor precursors versus Control group” value was “increased”. The “ALDH1A3 expression / ALDH1A3-positive region versus Control (NUC) group” value in the assay with ALDH1A3 was “increased”.

Turning to `CNC1CCC(N(Cc2cccc(-c3ccncc3)c2)C(=O)c2sc3ccccc3c2Cl)CC1` (stereo not drawn) [SAG], in assay [1], the “proportion … (Rod-like; NRL-positive)” value is listed as “about 17.2%”; the “proportion of cone photoreceptor precursor (Cone; RXR-γ-positive and NRL-negative)” value is reported as “about 12.6%”. In assay [1] (day 191), the “proportion of NRL-positive rod photoreceptor precursor among photoreceptor precursors versus Control group” value was “increased” and the “proportion of RXR-γ-positive cone photoreceptor precursor among photoreceptor precursors versus Control group” value is listed as “low”. Besides, the “ALDH1A3 expression / ALDH1A3-positive region versus Control (NUC) group” value in the assay on ALDH1A3 is “increased”.

With “BMP4: BMP protein; BMP signal transduction pathway agonist used as dorsalization signal transmitter”, in assay [1], the “proportion … (Rod-like; NRL-positive)” value was “about 6.1%”; the “proportion of cone photoreceptor precursor (Cone; RXR-γ-positive and NRL-negative)” value is on record as “about 31.3%”. Also, in assay [1] (day 191), the “proportion of NRL-positive rod photoreceptor precursor among photoreceptor precursors versus Control group” value is listed as “reduced”. Besides, the “ALDH1A3 expression / ALDH1A3-positive region versus Control (NUC) group” value in the assay on ALDH1A3 is “suppressed”.
